Experimental data from the NIST ThermoML archive (doi:10.1016/j.fluid.2011.02.008).
Several values for one entry are separate records, joined by “and”; a condition that tells them apart may be missing. Equal entries are not always repeated. ± gives the expanded uncertainty stated by the source.

Conditions: Liquid, Closed cell (Static) method

Q: Which “vapor or sublimation pressure” value (343.15 K) does the source give for `O=S=O` [sulfur dioxide] here?
A: 1479 ± 5 kPa and 1469 ± 24 kPa

Q: And the “vapor or sublimation pressure” value (373.15 K)?
A: 2883 ± 9 kPa

Q: And the “vapor or sublimation pressure” value (413.15 K)?
A: 5836 ± 18 kPa and 5978 ± 32 kPa
